# Source: patent US20260199325A1, “NOVEL SUBSTITUTED PYRAZINE-CARBOXAMIDE-IMIDAZOPYRIDINE DERIVATIVES” (Boehringer Ingelheim International GmbH, priority 2022, published 2026)
# Biological target: T1, human metabotropic Glutamate 4 receptor (Homo sapiens, UniProt Q14833)
# T1 construct: expressed in transfected cells; host or cells: HEK293
# Test: In vitro testing of mGluR4 potency (Assay A), cAMP HTRF in HEK293 cells
# Format: cell-based
# Conditions: Table 2; HEK293 cell overexpressing human mGluR4; 10 uM L-Glutamic acid, 1 uM forskolin
# Method: A. In Vitro Testing of mGluR4 Potency
# The in vitro activity of the compounds according to the invention may be investigated as follows:
# The HEK293 cell overexpressing the human metabotropic Glutamate 4 receptor were thawed at 37° C. and immediately diluted with cell culture medium. After centrifugation, the cell pellet is re-suspended in medium and then distributed from a stirred spinner flask into the wells of the assay plate. The plates are incubated for one hour at room temperature before they are incubated for 24 hours at 37° C./5% C02. After washing the cells in the plate three times with 80 uL HBSS/HEPES buffer (10 uL buffer remained in the wells after washing), 5 uL per well of compounds diluted in HBSS/HEPES buffer containing 0.2% BSA (final concentration: 0.1%) and 1 mM IBMX (final concentration: 0.5 mM) are added to the wells of the assay plate. Thereafter 5 uL per well of L-Glutamic acid (final concentration: 10 uM), forskolin (final concentration: 1 uM) and 1 mM IBMX (final concentration: 0.5 mM) dissolved in HBSS/HEPES buffer containing 0.2% BSA (final concentration: 0.1%) are added to the assay plate (final DMSO concentration: 1%). Several wells of the assay plate are used either for the positive and the negative controls or for the cAMP standard curve. The assay plate is incubated for 30 minutes at room temperature. Then 5 ul per well of Anti-cAMP-Antibody-d2 solution and 5 ul per well of cAMP-Europium Cryptate dilution are added to all wells of the plate and the plate is incubated another 60 minutes light protected at room temperature. The emission at 615 nm and 665 nm (Excitation wavelength: 320 nm) are measured on the EnVision™ reader (PerkinElmer). The ratio between the emission at 665 nm and 615 is calculated by the reader. The whole assay is performed in the dark or under green light.
# The cAMP standard is prepared by diluting the cAMP stock solution with HBSS/Hepes buffer: 5 μl/well of the cAMP dilutions (in HBSS/Hepes buffer containing 1 mM IBMX and 0.2% BSA-final concentration: 0.5 mM IBMX and 0.1% BSA) are added to 10 ul/well HBSS/Hepes buffer plus 5 ul/well 4% DMSO in HBSS/Hepes containing 0.2% BSA (final DMSO concentration: 1%-like in the wells containing compounds) in the wells of the assay plate. The final cAMP concentrations in the assay plate were: 0, 0.17, 0.69, 2.78, 11.1, 44.5, 178, and 712 nM (two wells/cAMP concentration).
# Each assay microtiter plate contained also wells with vehicle controls instead of compound as controls for L-Glutamic acid induced signal (negative control; 100% CTL; 10 uM L-Glutamic acid+1 uM forskolin+0.5 mM IBMX+1% DMSO) and wells with vehicle controls without L-Glutamic acid as controls for non-specific changes in signal (positive control; 0% CTL; 0 uM L-Glutamic acid+1 uM forskolin+0.5 mM IBMX+1% DMSO).
# The analysis of the data is performed by the calculation the ratio between the emission at 665 nm and the emission at 615 nm (Em665/Em615 ratio). Thereafter the signals of the compounds are normalized using the positive and negative controls by the following formula:
# PoC=100×((Signal Sample−Positive Control)/(Negative Control−Positive Control))
# T1 sequence (Q14833 33-912): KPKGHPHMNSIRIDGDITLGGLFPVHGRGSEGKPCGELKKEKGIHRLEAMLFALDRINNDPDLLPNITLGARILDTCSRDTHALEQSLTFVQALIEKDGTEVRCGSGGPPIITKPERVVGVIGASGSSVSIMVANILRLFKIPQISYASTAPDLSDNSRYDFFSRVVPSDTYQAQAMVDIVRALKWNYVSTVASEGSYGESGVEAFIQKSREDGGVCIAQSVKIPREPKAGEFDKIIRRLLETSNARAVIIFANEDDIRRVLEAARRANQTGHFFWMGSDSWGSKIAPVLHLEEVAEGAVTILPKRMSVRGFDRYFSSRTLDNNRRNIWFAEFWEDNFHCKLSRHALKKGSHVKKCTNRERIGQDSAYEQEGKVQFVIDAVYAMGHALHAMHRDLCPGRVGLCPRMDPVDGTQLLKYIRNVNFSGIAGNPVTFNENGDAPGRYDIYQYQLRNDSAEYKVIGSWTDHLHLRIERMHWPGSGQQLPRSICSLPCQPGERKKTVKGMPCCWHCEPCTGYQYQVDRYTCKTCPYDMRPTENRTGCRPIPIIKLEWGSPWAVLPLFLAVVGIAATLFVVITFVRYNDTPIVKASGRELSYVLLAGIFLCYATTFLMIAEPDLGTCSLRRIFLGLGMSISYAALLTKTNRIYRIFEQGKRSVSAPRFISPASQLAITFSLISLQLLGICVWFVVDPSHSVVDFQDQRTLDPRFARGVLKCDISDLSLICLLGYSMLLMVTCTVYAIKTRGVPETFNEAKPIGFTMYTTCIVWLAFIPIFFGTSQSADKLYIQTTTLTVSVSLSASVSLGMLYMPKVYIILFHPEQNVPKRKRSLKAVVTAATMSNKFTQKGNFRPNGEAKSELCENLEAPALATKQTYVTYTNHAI
row,SMILES,IC50 [nM]
1,"Cc1c(C#N)cnc2c1nc([C@H](CC1CC1)NC(=O)c1cnc(C(F)F)cn1)n2C(C)C [Example 11, N-[(1S)-1-[6-cyano-7-methyl-3-(propan-2-yl)-3H-imidazo[4,5-b]pyridin-2-yl]-2-cyclopropylethyl]-5-(difluoromethyl)pyrazine-2-carboxamide]",4
2,"Cc1c(C#N)cnc2c1nc([C@@H](NC(=O)c1cnc(C(F)F)cn1)C1CCC1)n2C(C)C [Example 7, N-[(S)-[6-cyano-7-methyl-3-(propan-2-yl)-3H-imidazo[4,5-b]pyridin-2-yl](cyclobutyl)methyl]-5-(difluoromethyl)pyrazine-2-carboxamide]",3
3,"Cc1cnc(C(=O)N[C@H](c2nc3ccc(C(F)(F)F)nc3n2C(C)C)C2CC2)cn1 [Example 8, N-[(S)-cyclopropyl[3-(propan-2-yl)-5-(trifluoromethyl)-3H-imidazo[4,5-b]pyridin-2-yl]methyl]-5-methylpyrazine-2-carboxamide]",3
4,"COC(C)(C)[C@H](NC(=O)c1cnc(C)cn1)c1nc2c(C)c(C#N)cnc2n1C(C)C [Example 2, N-[(IR)-1-[6-cyano-7-methyl-3-(propan-2-yl)-3H-imidazo[4,5-b]pyridin-2-yl]-2-methoxy-2-methylpropyl]-5-methylpyrazine-2-carboxamide]",2
5,"CC(C)n1c([C@@H](NC(=O)c2cnc(C(F)F)cn2)C2CC2)nc2cc(C(F)(F)F)ncc21 [Example 27, N-[(S)-cyclopropyl[3-(propan-2-yl)-6-(trifluoromethyl)-3H-imidazo[4,5-c]pyridin-2-yl]methyl]-5-(difluoromethyl)pyrazine-2-carboxamide]",31
6,"CCn1c([C@@H](NC(=O)c2cnc(C(F)F)cn2)C2CC2)nc2cc(C(F)(F)F)ncc21 [Example 48, N-[(S)-cyclopropyl[3-ethyl-6-(trifluoromethyl)-3H-imidazo[4,5-c]pyridin-2-yl]methyl]-5-(difluoromethyl)pyrazine-2-carboxamide]",48
7,"Cc1c(C#N)cnc2c1nc([C@@H](NC(=O)c1cnc(C(F)F)cn1)C1CC1)n2C(C)C [Example 4, N-[(S)-[6-cyano-7-methyl-3-(propan-2-yl)-3H-imidazo[4,5-b]pyridin-2-yl](cyclopropyl)methyl]-5-(difluoromethyl)pyrazine-2-carboxamide]",2
8,"CO[C@H](C)[C@H](NC(=O)c1cnc(C(F)F)cn1)c1nc2c(C)c(C#N)cnc2n1C(C)C [Example 19, N-[(1R,2R)-1-[6-cyano-7-methyl-3-(propan-2-yl)-3H-imidazo[4,5-b]pyridin-2-yl]-2-methoxypropyl]-5-(difluoromethyl)pyrazine-2-carboxamide]",8
9,"CO[C@H](C)[C@H](NC(=O)c1cnc(C)cn1)c1nc2cc(Cl)cnc2n1C(C)C [Example 13, N-[(1R,2R)-1-[6-chloro-3-(propan-2-yl)-3H-imidazo[4,5-b]pyridin-2-yl]-2-methoxypropyl]-5-methylpyrazine-2-carboxamide]",4
10,"Cc1cnc(C(=O)N[C@H](c2nc3cc(Cl)cnc3n2C(C)C)C2(O)CCC2)cn1 [Example 25, N-[(R)-[6-chloro-3-(propan-2-yl)-3H-imidazo[4,5-b]pyridin-2-yl](1-hydroxycyclobutyl)methyl]-5-methylpyrazine-2-carboxamide]",12
11,"CC(C)n1c([C@@H](NC(=O)c2cnc(C(F)F)cn2)C2CCC2)nc2cc(C#N)cnc21 [Example 30, N-[(S)-[6-cyano-3-(propan-2-yl)-3H-imidazo[4,5-b]pyridin-2-yl](cyclobutyl)methyl]-5-(difluoromethyl)pyrazine-2-carboxamide]",14
12,"Cc1cnc(C(=O)N[C@H](c2nc3cc(C(F)(F)F)cnc3n2C(C)C)C2CC2)cn1 [Example 3, N-[(S)-cyclopropyl[3-(propan-2-y1)-6-(trifluoromethyl)-3H-imidazo[4,5-b]pyridin-2-y1]methyl]-5-methylpyrazine-2-carboxamide]",2
13,"Cc1cnc(C(=O)N[C@H](c2nc3cc(Cl)cnc3n2C(C)C)C2CC2)cn1 [Example 10, N-[(S)-[6-chloro-3-(propan-2-yl)-3H-imidazo[4,5-b]pyridin-2-yl](cyclopropyl)methyl]-5-methylpyrazine-2-carboxamide]",4
14,"COC(C)(C)[C@H](NC(=O)c1cnc(C)cn1)c1nc2cccnc2n1C(C)C [Example 37, N-[(1R)-2-methoxy-2-methyl-1-[3-(propan-2-yl)-3H-imidazo[4,5-b]pyridin-2-yl]propyl]-5-methylpyrazine-2-carboxamide]",19
15,"Cc1nc(C(F)(F)F)cc2c1nc([C@@H](NC(=O)c1cnc(C(F)F)cn1)C1CC1)n2C(C)C [Example 22, N-[(S)-cyclopropyl[4-methyl-1-(propan-2-yl)-6-(trifluoromethyl)-1H-imidazo[4,5-c]pyridin-2-yl]methyl]-5-(difluoromethyl)pyrazine-2-carboxamide]",10
16,"Cc1cnc(C(=O)N[C@H](c2nc3c(C)nc(C(F)(F)F)cc3n2C(C)C)C2CC2)cn1 [Example 16, N-[(S)-cyclopropyl[4-methyl-1-(propan-2-yl)-6-(trifluoromethyl)-1H-imidazo[4,5-c]pyridin-2-yl]methyl]-5-methylpyrazine-2-carboxamide]",13
17,"Cc1cnc(C(=O)N[C@H](c2nc3cnc(C(F)(F)F)cc3n2C(C)C)[C@@H]2COCCO2)cn1 [Example 50, N-[(R)-[(2R)-1,4-dioxan-2-yl][1-(propan-2-yl)-6-(trifluoromethyl)-1H-imidazo[4,5-c]pyridin-2-yl]methyl]-5-methylpyrazine-2-carboxamide]",80
18,"COc1c(Br)cnc2c1nc([C@@H](NC(=O)c1cnc(C)cn1)C1CC1)n2C(C)C [Example 5, N-[(S)-[6-bromo-7-methoxy-3-(propan-2-yl)-3H-imidazo[4,5-b]pyridin-2-yl](cyclopropyl)methyl]-5-methylpyrazine-2-carboxamide]",2
19,COc1c(C#N)cnc2c1nc([C@@H](NC(=O)c1cnc(C)cn1)C1CC1)n2C(C)C [Example 31],14
20,"Cc1c(C#N)cnc2c1nc([C@@H](NC(=O)c1cnc(C(F)F)cn1)C1(O)CCC1)n2C(C)C [Example 26, N-[(R)-[6-cyano-7-methyl-3-(propan-2-yl)-3H-imidazo[4,5-b]pyridin-2-yl](1-hydroxycyclobutyl)methyl]-5-(difluoromethyl)pyridazine-2-carboxamide]",13
21,"Cc1cnc(C(=O)N[C@@H](C[C@@H]2CCCO2)c2nc3c(C)c(C#N)cnc3n2C(C)C)cn1 [Example 38, N-[(1S)-1-[6-cyano-7-methyl-3-(propan-2-yl)-3H-imidazo[4,5-b]pyridin-2-yl]-2-[(2S)-oxolan-2-yl]ethyl]-5-methylpyrazine-2-carboxamide]",19
22,"CO[C@@H](C)[C@H](NC(=O)c1cnc(C)cn1)c1nc2cc(Cl)cnc2n1C(C)C [Example 23, N-[(1R,2S)-1-[6-chloro-3-(propan-2-yl)-3H-imidazo[4,5-b]pyridin-2-yl]-2-methoxypropyl]-5-methylpyrazine-2-carboxamide]",10
23,"CC(C)n1c([C@@H](NC(=O)c2cnc(C(F)F)cn2)C2CC2)nc2cc(F)cnc21 [Example 32, N-[(S)-cyclopropyl[6-fluoro-3-(propan-2-yl)-3H-imidazo[4,5-b]pyridin-2-yl]methyl]-5-(difluoromethyl)pyrazine-2-carboxamide]",15
